Results: patent US20040213742A1, “Monitoring marker” (priority 2002, published 2004)

Assay: Intrauterine injection of pure N2O gas in anaesthetized pigs, N2O detected in expired breath
Type: in vivo
Details: anaesthetized pig
Protocol: Pure nitrous oxide (N2O) gas was injected into the uterine cavities of 2 anaesthetized pigs with open uterine tubes and surgically ligated uterine tubes, respectively. Said N2O was detected every second in the expired breath by means of a conventional N2O detector.
The results are shown in FIGS. 1 and 2, where FIG. 1 is a concentration versus time graph and FIG. 2 is a cumulative concentration versus time graph, the upper curves representing closed uterine tubes and the lower curves representing open uterine tubes.
Furthermore, there was a clear difference between the two curves versus time which enables a monitoring of fallopian tube abnormalities as claimed by the present invention.

time to maximum concentration in the exhaled air (open uterine tubes, intrauterine injection of pure N2O gas): approximately 2 minutes
maximum concentration in the exhaled air (open uterine tubes, pure N2O gas injected into uterine cavity, detected every second in expired breath): approximately 40 ppm
maximum concentration in the exhaled air, closed tubes relative to open tubes (higher) (surgically ligated (closed) uterine tubes versus open uterine tubes): approximately 50%
Structure (SMILES): [N-]=[N+]=O [nitrous oxide]
